“Also recorded” adds a separate entry of the source. Bridge positions count the residues as written; N and C are the ends. Square brackets hold non-standard residues; d marks the D form. Peptide text beside a SMILES is read from it. R8 = C=CCCCCCC[C@@](C)(N)C(=O)O; S5 = C=CCCC[C@](C)(N)C(=O)O; Nle = CCCC[C@H](N)C(=O)O
Experiments:
[1] = molecular target: T1, UBA1 (Homo sapiens, UniProt P22314); experiment: Hydrogen-deuterium exchange mass spectrometry with E1; type: binding; conditions: 10 s labeling
T1 sequence (P22314 1-1058): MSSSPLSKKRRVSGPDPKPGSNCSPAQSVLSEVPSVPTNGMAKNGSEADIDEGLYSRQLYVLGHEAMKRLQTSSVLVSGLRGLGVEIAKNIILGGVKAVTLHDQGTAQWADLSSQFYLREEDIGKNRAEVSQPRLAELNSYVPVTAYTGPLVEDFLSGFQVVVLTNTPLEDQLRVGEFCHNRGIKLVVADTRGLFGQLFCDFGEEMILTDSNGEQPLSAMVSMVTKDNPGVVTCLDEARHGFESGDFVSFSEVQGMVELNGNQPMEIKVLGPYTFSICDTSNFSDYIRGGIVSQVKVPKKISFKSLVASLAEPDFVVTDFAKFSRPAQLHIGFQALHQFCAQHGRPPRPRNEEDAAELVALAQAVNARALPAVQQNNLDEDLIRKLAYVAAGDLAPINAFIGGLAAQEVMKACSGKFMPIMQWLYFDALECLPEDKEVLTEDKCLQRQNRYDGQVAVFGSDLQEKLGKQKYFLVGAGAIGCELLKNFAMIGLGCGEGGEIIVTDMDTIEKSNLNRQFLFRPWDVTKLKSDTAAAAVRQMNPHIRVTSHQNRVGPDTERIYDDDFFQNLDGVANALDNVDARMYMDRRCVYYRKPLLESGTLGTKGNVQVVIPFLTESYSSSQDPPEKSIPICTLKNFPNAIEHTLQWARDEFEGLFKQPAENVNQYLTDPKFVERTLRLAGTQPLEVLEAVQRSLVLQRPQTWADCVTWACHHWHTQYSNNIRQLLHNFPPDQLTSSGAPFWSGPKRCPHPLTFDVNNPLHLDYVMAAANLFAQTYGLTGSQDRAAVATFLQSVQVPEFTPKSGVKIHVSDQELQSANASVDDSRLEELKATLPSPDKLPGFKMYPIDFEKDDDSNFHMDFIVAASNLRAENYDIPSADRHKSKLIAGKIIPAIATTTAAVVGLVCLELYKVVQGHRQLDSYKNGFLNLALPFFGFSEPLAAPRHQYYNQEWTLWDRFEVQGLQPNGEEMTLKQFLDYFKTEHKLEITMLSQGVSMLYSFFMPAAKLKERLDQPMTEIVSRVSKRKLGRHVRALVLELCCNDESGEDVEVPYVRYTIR
Procedure: HXMS analysis: Hydrogen-deuterium exchange mass spectrometry (HXMS) experiments were performed as described (Barclay, L. A. et al. Inhibition of Pro-apoptotic BAX by a noncanonical interaction mechanism. Molecular Cell 57, 873-886, doi: 10.1016/j.molcel.2015.01.014 (2015)). SAH-UBE2A was incubated alone or with the indicated molar ratio of recombinant human UBA1, UBE2D2, or vehicle control for ten minutes on ice, in buffer containing 50 mM NaCl, 5 mM MgCl2, 500 nM ubiquitin, 20 mM ATP, 5 mM DTT, 20 mM HEPES, pH 7.4. Deuterium labeling was initiated with an 18-fold dilution into D20 buffer (20 mM HEPES, 50 mM NaCl, pD 8). After 10 s of labeling, the labeling reaction was quenched with the addition of an equal volume of quenching buffer (0.8 M guanidinium chloride, 0.8% [v/v] formic acid). Samples were then injected and peptides were trapped intact and desalted on a VanGuard Pre-Column trap (2.1 mm×5 mm, ACQUITY UPLC BEH C18, 1.7 μm) for 3 min, eluted from the trap using a 5%-35% gradient of acetonitrile over 6 minutes at a flow rate of 65 μL/min, and then separated using an ACQUITY UPLC HSS T3, 1.8 μm, 1.0 mm×50 mm column on a Waters nanoACQUITY LC. The Waters Synapt G2Si mass spectrometer was operated in ion mobility mode and data analyzed. All mass spectra were processed using DynamX 3.0 (Waters Corporation). […]

[2] = molecular target: T1, UBA1; experiment: Fluorescence polarization binding assay; conditions: presence and absence of ubiquitin and ATP
Description: (§1) In vitro Binding Assays: To assess the binding and affinity of peptidomimetic macrocycles and peptidomimetic precursors to acceptor proteins, a fluorescence polarization assay (FPA) can be used, for example. The FPA technique measures the molecular orientation and mobility using polarized light and fluorescent tracer. When excited with polarized light, fluorescent tracers (e.g., FITC) attached to molecules with high apparent molecular weights (e.g., FITC-labeled peptides bound to a large protein) emit higher levels of polarized fluorescence due to their slower rates of rotation as compared to fluorescent tracers attached to smaller molecules (e.g., FITC-labeled peptides that are free in solution).
as §1, with “ligands” for “peptidomimetic macrocycles and peptidomimetic precursors”

CCCC[C@H](NC(C)=O)C(=O)N[C@@H](CO)C(=O)N[C@H](C(=O)N1CCC[C@H]1C(=O)N[C@]1(C)CCCCCCC=CCCC[C@@](C)(C(=O)N[C@@H](Cc2ccccc2)C(=O)N[C@@H](CCCCN)C(=O)N[C@@H](CCCNC(=N)N)C(=O)N[C@@H](CC(C)C)C(=O)N[C@@H](CCC(N)=O)C(N)=O)NC(=O)[C@H](CCCNC(=N)N)NC(=O)[C@H](CCCC)NC(=O)[C@H](CC(C)C)NC(=O)[C@H](CCCNC(=N)N)NC(=O)[C@H](CCCNC(=N)N)NC(=O)[C@H](CCCNC(=N)N)NC1=O)[C@@H](C)O [SAH-UBE2A-11, BSTPX1RRRLBRX2FKRLQ] (Ac-[Nle]STP[R8]RRRL[Nle]R[S5]FKRLQ-NH2; staple 5-12)
protection of peptide from deuterium uptake by UBA1 [1]: dose-dependently protected SAH-UBE2A from deuterium uptake; also recorded: dose-responsively binding to E1 | direct binding to recombinant UBA1, fluorescence polarization [2]: binds to UBA1 independent of ubiquitin and ATP; also recorded: direct binding of SAH-UBE2A to recombinant UBA1

From US12358960B2, “Selective targeting of ubiquitin- and ubiquitin-like E1-activating enzymes by structurally-stabilized peptides” (Dana-Farber Cancer Institute, Inc., priority 2019, dated 2025)
